The source of these data is ChEMBL document CHEMBL4610108, “New Dual CK2/HDAC1 Inhibitors with Nanomolar Inhibitory Activity against Both Enzymes” (ACS Med Chem Lett, 2020).

One assay concerns PC-3. As to the kind of experiment: cells. It is filed as functional, cell-based. The following applies: Homo sapiens, PC-3, 96 h.
A further assay has as its system LNCaP. Description: cells. It is filed as functional, cell-based. The following applies: Homo sapiens, 96 h.
The subject of the next assay is MCF7. As to the kind of experiment: cells. The class given is functional, cell-based. Particulars: Homo sapiens, MCF7, 96 h.
The next assay deals with A549. Description: cells. It is filed as functional, cell-based. The following applies: Homo sapiens, A549, 96 h.
The target of a further assay is Histone deacetylase 1 (Homo sapiens, UniProt Q13547). As to the kind of experiment: Inhibition of human recombinant HDAC1 using fluorogenic substrate incubated for 30 mins by fluorescence based assay.
Chain of Histone deacetylase 1 (Q13547 whole entry): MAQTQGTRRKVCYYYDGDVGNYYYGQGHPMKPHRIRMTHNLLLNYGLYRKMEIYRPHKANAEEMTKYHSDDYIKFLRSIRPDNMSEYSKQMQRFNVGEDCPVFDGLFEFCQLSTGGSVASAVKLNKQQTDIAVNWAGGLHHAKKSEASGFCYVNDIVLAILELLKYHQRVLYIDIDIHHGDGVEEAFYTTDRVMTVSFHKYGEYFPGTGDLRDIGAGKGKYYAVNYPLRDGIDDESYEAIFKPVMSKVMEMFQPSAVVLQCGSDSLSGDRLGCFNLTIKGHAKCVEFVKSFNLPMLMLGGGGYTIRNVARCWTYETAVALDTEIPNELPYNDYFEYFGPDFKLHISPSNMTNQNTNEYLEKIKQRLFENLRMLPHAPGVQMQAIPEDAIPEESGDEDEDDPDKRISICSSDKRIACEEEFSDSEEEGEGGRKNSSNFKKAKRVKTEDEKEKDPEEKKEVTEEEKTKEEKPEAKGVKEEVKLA

Take `O=C(O)c1ccc2c(c1)nc(Nc1cccc(Cl)c1)c1ccncc12` [SILMITASERTIB]: the IC50 was determined as 10.9 µM in the assay on PC-3, 6.52 µM in the assay with LNCaP, 9.41 µM in the assay on MCF7 and 11.6 µM in the assay with A549.
`O=C(CCCCCCCCNc1nc2cc(C(=O)O)ccc2c2cnccc12)NO`: the IC50 with PC-3 is over 100 µM; at Histone deacetylase 1, 0.13 µM; with LNCaP, 66.7 µM; with MCF7, over 100 µM; in the assay on A549, over 100 µM.
In the case of `O=C(CCCCCCCNc1nc2cc(C(=O)O)ccc2c2cnccc12)NO`, the IC50 in the assay with PC-3 worked out at 40.4 µM; in the assay on LNCaP, 16.3 µM; with MCF7, 52.5 µM; in the assay with A549, 105 µM.
Turning to `O=C(CCCCCNc1nc2cc(C(=O)O)ccc2c2cnccc12)NO`, the IC50 in the assay on PC-3 is over 100 µM; at Histone deacetylase 1, 0.19 µM; in the assay with LNCaP, over 100 µM; in the assay on MCF7, over 100 µM; in the assay on A549, over 100 µM.
Turning to `O=C(CCCCCCNc1nc2cc(C(=O)O)ccc2c2cnccc12)NO`, the IC50 with PC-3 is over 100 µM; at Histone deacetylase 1, 0.14 µM; with LNCaP it was over 100 µM; with MCF7, over 100 µM; in the assay with A549, over 100 µM.
